The text below walks through data of publication PMC10870240 (Chembiochem : a European journal of chemical biology, 2023).

In this experiment the target is full-length CBP (Homo sapiens, UniProt Q92793). The experiment is described as follows: cellular thermal shift assay. Type of experiment: biochemical. Particulars: 25 μM garcinolic acid, MV4-11 nuclear extract.
full-length CBP, sequence (Q92793 2-2442): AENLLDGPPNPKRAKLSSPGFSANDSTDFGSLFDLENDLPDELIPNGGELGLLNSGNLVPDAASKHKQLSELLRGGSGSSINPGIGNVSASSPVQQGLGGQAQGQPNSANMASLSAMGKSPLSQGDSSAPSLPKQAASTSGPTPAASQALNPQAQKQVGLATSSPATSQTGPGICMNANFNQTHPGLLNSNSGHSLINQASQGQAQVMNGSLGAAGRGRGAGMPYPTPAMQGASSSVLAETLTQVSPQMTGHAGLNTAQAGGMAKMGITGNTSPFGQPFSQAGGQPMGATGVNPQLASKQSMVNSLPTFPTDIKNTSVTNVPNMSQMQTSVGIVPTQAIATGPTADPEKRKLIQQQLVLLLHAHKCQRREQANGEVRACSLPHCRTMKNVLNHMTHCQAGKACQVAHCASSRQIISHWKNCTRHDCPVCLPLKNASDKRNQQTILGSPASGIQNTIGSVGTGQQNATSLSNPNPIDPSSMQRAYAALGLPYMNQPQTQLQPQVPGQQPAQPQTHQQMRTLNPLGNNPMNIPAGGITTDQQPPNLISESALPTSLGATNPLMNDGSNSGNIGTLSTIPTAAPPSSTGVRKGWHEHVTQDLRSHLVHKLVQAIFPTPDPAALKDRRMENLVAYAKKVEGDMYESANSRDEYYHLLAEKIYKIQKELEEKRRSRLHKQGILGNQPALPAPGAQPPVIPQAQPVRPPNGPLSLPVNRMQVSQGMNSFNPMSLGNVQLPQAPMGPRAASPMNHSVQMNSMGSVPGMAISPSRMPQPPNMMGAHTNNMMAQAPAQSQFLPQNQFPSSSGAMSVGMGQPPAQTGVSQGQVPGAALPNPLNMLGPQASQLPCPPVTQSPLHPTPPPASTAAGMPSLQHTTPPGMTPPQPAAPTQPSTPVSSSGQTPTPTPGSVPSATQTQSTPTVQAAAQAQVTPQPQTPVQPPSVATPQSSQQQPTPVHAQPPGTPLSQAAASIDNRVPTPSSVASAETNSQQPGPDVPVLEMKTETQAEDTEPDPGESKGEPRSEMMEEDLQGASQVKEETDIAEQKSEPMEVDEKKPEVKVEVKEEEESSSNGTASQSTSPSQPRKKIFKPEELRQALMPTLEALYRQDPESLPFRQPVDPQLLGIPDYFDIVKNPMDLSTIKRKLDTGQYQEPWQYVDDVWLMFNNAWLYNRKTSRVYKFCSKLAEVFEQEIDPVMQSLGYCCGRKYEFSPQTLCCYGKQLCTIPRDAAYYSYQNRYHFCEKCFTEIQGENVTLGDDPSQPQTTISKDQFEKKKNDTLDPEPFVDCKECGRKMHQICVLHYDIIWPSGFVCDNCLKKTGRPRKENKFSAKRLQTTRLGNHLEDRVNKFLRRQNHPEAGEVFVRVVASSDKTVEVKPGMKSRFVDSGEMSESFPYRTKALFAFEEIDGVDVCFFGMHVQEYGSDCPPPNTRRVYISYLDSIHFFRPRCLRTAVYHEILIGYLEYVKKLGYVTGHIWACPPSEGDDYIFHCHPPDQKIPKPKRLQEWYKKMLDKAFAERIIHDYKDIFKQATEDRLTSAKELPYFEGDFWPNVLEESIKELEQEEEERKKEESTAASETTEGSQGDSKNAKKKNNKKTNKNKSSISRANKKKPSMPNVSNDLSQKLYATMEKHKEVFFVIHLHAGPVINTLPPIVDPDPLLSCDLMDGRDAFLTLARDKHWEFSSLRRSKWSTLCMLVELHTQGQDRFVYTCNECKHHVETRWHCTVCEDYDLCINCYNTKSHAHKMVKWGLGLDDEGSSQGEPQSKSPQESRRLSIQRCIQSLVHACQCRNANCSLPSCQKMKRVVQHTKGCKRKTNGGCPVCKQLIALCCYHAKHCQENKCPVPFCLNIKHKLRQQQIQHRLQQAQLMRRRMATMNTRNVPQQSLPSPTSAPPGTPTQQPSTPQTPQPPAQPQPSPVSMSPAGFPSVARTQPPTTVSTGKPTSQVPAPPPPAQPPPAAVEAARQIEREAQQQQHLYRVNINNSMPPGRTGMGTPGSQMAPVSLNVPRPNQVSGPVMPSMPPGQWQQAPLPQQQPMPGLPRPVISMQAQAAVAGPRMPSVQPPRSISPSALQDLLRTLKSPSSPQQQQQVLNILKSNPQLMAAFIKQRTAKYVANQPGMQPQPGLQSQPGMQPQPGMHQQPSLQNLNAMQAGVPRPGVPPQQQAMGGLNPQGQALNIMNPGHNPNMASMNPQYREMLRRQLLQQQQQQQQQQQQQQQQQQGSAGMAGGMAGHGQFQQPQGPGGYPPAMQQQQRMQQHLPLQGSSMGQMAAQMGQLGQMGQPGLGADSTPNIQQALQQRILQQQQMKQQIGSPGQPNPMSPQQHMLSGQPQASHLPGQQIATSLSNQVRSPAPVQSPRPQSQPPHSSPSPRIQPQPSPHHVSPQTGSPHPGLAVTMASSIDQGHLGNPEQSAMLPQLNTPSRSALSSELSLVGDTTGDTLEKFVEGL

As to `CC(C)=CCCC1(C)C=Cc2c(O)c3c(c(CC=C(C)C)c2O1)OC12C(=CCCC1C(C)(C)O[C@@]2(C/C=C(\C)C(=O)O)C(=O)O)C3=O` (stereo partly shown) [garcinolic acid], the “cellular thermal shift assay (Western blot)” value is reported as “intact CBP is still observed in the garcinolic acid treated samples”.
